# Patent US20100168072A1, “Drug Combinations for the Treatment of Duchenne Muscular Dystrophy” (BIOMARIN IGA LIMITED, priority 2007, published 2010)
# Tested on: Utrophin A promoter linked to a luciferase reporter gene (H2K/mdx/Utro A reporter cell line)
# Assay: Luciferase reporter assay (murine H2K cells)
# Assay type: cell-based
# Details: Mus musculus; final concentration of 10 μM; incubated for a further 48 hrs
# Procedure: The cell line used for the screen is an immortalized mdx mouse H2K cell line that has been stably transfected with a plasmid containing ≈5 kb fragment of the Utrophin A promoter including the first untranslated […] linked to a luciferase reporter gene.
# Under conditions of low temperature and interferon containing media, the cells remain as myoblasts. These are plated into 96 well plates and cultured in the presence of compound for three days. The level of luciferase is then determined by cell lysis and reading of the light output from the expressed luciferase gene utilising a plate luminometer.
# The H2K/mdx/Utro A reporter cell line was passaged twice a week until ≦30% confluent. The cells were grown at 33° C. in the presence of 10% CO2
# To remove the myoblasts for platting, they were incubated with Trypsin/EDTA until the monolayer started to detach.
# • DMEM Gibco 41966 • 20% FCS • 1% Pen/Strep • 1% glutamine • 10 mls Chick embryo extract • Interferon(1276 905 Roche) Add fresh 10 μl/50 mls medium
# The H2K/mdx/Utro A reporter cell line cells were plated out into 96 well plates (Falcon 353296, white opaque) at a density of approximately 5000 cells/well in 190 μl normal growth medium. The plates were then incubated at 33° C. in the presence of 10% CO2 for 24 hrs.
# Compounds were dosed by adding 10 μl of diluted compound to each well giving a final concentration of 10 μM. The plates were then incubated for a further 48 hrs
# Cells were then lysed in situ following the manufacture's protocols (Promega Steady-Glo Luciferase Assay System (E2520). Then counted for 10 seconds using a plate luminometer (Victor1420).
row,SMILES,activity at 10 µM
1,"Nc1ccc2nn(-c3ccc(N4CCCCC4)cc3)nc2c1 [Example 40, 2-(4-(piperidin-1-yl)phenyl)-2H-benzo[d][1,2,3]triazol-5-amine]",201 to 300%
2,"Cc1cc2nn(-c3ccc(Cl)cc3)nc2cc1N [Example 43, 2-(4-chlorophenyl)-6-methyl-2H-benzo[d][1,2,3]triazol-5-amine]",> 401%
3,"CCN(CC)c1ccc(-n2nc3cc(C)c(NC(=O)c4ccncc4)cc3n2)cc1 [Example 13, N-(2-(4-(diethylamino)phenyl)-6-methyl-2H-benzo[d][1,2,3]triazol-5-yl)isonicotinamide]",301 to 400%
4,"CCCCC(=O)Nc1cc2nn(-c3ccc(N(CC)CC)cc3)nc2cc1C [Example 16, N-(2-(4-(diethylamino)phenyl)-6-methyl-2H-benzo[d][1,2,3]triazol-5-yl)pentanamide]",< 200%
5,"CCCCC(=O)Nc1cc2nn(-c3ccc(Cl)cc3)nc2cc1C [Example 9, N-(2-(4-chlorophenyl)-6-methyl-2H-benzo[d][1,2,3]triazol-5-yl)pentanamide]",201 to 300%
6,"CCN(CC)c1ccc(-n2nc3ccc(NC(=O)c4ccc(N(C)C)cc4)cc3n2)cc1 [Example 33, N-(2-(4-(diethylamino)phenyl)-2H-benzo[d][1,2,3]triazol-5-yl)-4-(dimethylamino)benzamide]",< 200%
7,"Nc1ccc2nn(-c3ccc(Cl)cc3)nc2c1 [Example 38, 2-(4-chlorophenyl)-2H-benzo[d][1,2,3]triazol-5-amine]",< 200%
8,"CCS(=O)(=O)c1ccc2nn(-c3ccc(Cl)cc3)nc2c1 [Example 52, 2-(4′-chlorophenyl)-5-(ethylsulfonyl)-benzotriazole]",> 401%
9,"CN(C)c1ccc(-n2nc3ccc(N)cc3n2)cc1 [Example 41, 2-(4-(dimethylamino)phenyl)-2H-benzo[d][1,2,3]triazol-5-amine]",301 to 400%
10,"CC(C)C(=O)Nc1ccc2nn(-c3ccc(Cl)cc3)nc2c1 [Example 37, N-(2-(4-chlorophenyl)-2H-benzo[d][1,2,3]triazol-5-yl)isobutyramide]",> 401%
11,"Cc1cc2nn(-c3ccc(Cl)cc3)nc2cc1NC(=O)c1ccncc1 [Example 2, N-(2-(4-chlorophenyl)-6-methyl-2H-benzo[d][1,2,3]triazol-5-yl)isonicotinamide]",201 to 300%
12,"CCC(=O)Nc1cc2nn(-c3ccc(Cl)cc3)nc2cc1C [Example 7, N-(2-(4-chlorophenyl)-6-methyl-2H-benzo[d][1,2,3]triazol-5-yl)propionamide]",< 200%
13,"CCCC(=O)Nc1cc2nn(-c3ccc(N(CC)CC)cc3)nc2cc1C [Example 15, N-(2-(4-(diethylamino)phenyl)-6-methyl-2H-benzo[d][1,2,3]triazol-5-yl)butyramide]",< 200%
14,"CCN(CC)c1ccc(-n2nc3ccc(NC(=O)c4ccncc4)cc3n2)cc1 [Example 21, N-(2-(4-(diethylamino)phenyl)-2H-benzo[d][1,2,3]triazol-5-yl)isonicotinamide]",< 200%
15,"CCC(=O)Nc1ccc2nn(-c3ccc(Cl)cc3)nc2c1 [Example 35, N-(2-(4-chlorophenyl)-2H-benzo[d][1,2,3]triazol-5-yl)propionamide]",> 401%
16,"CCCC(=O)Nc1cc2nn(-c3ccc(Cl)cc3)nc2cc1C [Example 8, N-(2-(4-chlorophenyl)-6-methyl-2H-benzo[d][1,2,3]triazol-5-yl)butyramide]",201 to 300%
17,"Cc1cc2nn(-c3ccc(Cl)cc3)nc2cc1NC(=O)c1ccco1 [Example 11, N-(2-(4-chlorophenyl)-6-methyl-2H-benzo[d][1,2,3]triazol-5-yl)furan-2-carboxamide]",201 to 300%
18,"Cc1cc2nn(-c3ccc(Cl)cc3)nc2cc1NC(=O)c1ccccc1 [Example 3, N-(2-(4-chlorophenyl)-6-methyl-2H-benzo[d][1,2,3]triazol-5-yl)benzamide]",< 200%
19,"CCCCC(=O)Nc1ccc2nn(-c3ccc(N(CC)CC)cc3)nc2c1 [Example 25, N-(2-(4-(diethylamino)phenyl)-2H-benzo[d][1,2,3]triazol-5-yl)pentanamide]",< 200%
20,"CC(=O)Nc1ccc2nn(-c3ccc(Cl)cc3)nc2c1 [Example 39, N-(2-(4-chlorophenyl)-2H-benzo[d][1,2,3]triazol-5-yl)acetamide]",> 401%
21,"CCN(CC)c1ccc(-n2nc3ccc(NC(=O)c4ccco4)cc3n2)cc1 [Example 27, N-(2-(4-(diethylamino)phenyl)-2H-benzo[d][1,2,3]triazol-5-yl)furan-2-carboxamide]",< 200%

row,SMILES,activity at 10 µM
1,"CCC(=O)Nc1cc2nn(-c3ccc(N(CC)CC)cc3)nc2cc1C [Example 14, N-(2-(4-(diethylamino)phenyl)-6-methyl-2H-benzo[d][1,2,3]triazol-5-yl)propionamide]",< 200%
2,"CCN(CC)c1ccc(-n2nc3cc(C)c(NC(=O)C(C)C)cc3n2)cc1 [Example 17, N-(2-(4-(diethylamino)phenyl)-6-methyl-2H-benzo[d][1,2,3]triazol-5-yl)isobutyramide]",< 200%
3,"Cc1cc2nn(-c3ccc(Cl)cc3)nc2cc1NC(=O)c1cccs1 [Example 6, N-(2-(4-chlorophenyl)-6-methyl-2H-benzo[d][1,2,3]triazol-5-yl)thiophene-2-carboxamide]",301 to 400%
4,"Cc1cc2nn(-c3ccc(Cl)cc3)nc2cc1NC(=O)C(C)C [Example 10, N-(2-(4-chlorophenyl)-6-methyl-2H-benzo[d][1,2,3]triazol-5-yl)isobutyramide]",201 to 300%
5,"CCN(CC)c1ccc(-n2nc3cc(C)c(NC(=O)c4ccco4)cc3n2)cc1 [Example 18, N-(2-(4-(diethylamino)phenyl)-6-methyl-2H-benzo[d][1,2,3]triazol-5-yl)furan-2-carboxamide]",< 200%
6,"Cc1cc2nn(-c3ccc(Cl)cc3)nc2cc1NC(=O)c1cccnc1 [Example 1, N-(2-(4-chlorophenyl)-6-methyl-2H-benzo[d][1,2,3]triazol-5-yl)nicotinamide]",301 to 400%
7,"CCN(CC)c1ccc(-n2nc3ccc(NC(=O)C(C)C)cc3n2)cc1 [Example 26, N-(2-(4-(diethylamino)phenyl)-2H-benzo[d][1,2,3]triazol-5-yl)isobutyramide]",< 200%
8,"CC(=O)Nc1cc2nn(-c3ccccc3)nc2cc1C [Example 67, N-(6-methyl-2-phenyl-2H-benzo[d][1,2,3]triazol-5-yl)acetamide]",201 to 300%
9,"CC(C)C(=O)Nc1ccc2cn(-c3ccc(Cl)cc3)nc2c1 [Example 46, N-(2-(4-chlorophenyl)-2H-indazol-6-yl)isobutyramide]",> 401%
10,"COc1ccc(C(=O)Nc2cc3nn(-c4ccc(Cl)cc4)nc3cc2C)cc1 [Example 4, N-(2-(4-chlorophenyl)-6-methyl-2H-benzo[d][1,2,3]triazol-5-yl)-4-methoxybenzamide]",201 to 300%
11,"CC(C)S(=O)(=O)c1ccc2cn(-c3ccc(Cl)cc3)nc2c1 [Example 56, 2-(4′-Chlorophenyl)-6-(isopropylsulfonyl)-2H-indazole]",> 401%
12,"CCN(CC)c1ccc(-n2nc3ccc(NC(=O)c4ccccc4OC)cc3n2)cc1 [Example 31, N-(2-(4-(diethylamino)phenyl)-2H-benzo[d][1,2,3]triazol-5-yl)-2-methoxybenzamide]",< 200%
13,"Cc1cc2nn(-c3ccc(N4CCOCC4)cc3)nc2cc1N [Example 34, 6-methyl-2-(4-morpholinophenyl)-2H-benzo[d][1,2,3]triazol-5-amine]",201 to 300%
14,"CCN(CC)c1ccc(-n2nc3ccc(NC(=O)c4ccccc4)cc3n2)cc1 [Example 29, N-(2-(4-(diethylamino)phenyl)-2H-benzo[d][1,2,3]triazol-5-yl)benzamide]",< 200%
15,"CN1CCN(c2ccc(-n3nc4ccc(N)cc4n3)cc2)CC1 [Example 42, 2-(4-(4-methylpiperazin-1-yl)phenyl)-2H-benzo[d][1,2,3]triazol-5-amine]",< 200%
16,"CCN(CC)c1ccc(-n2nc3cc(C)c(NC(=O)c4cccnc4)cc3n2)cc1 [Example 12, N-(2-(4-(diethylamino)phenyl)-6-methyl-2H-benzo[d][1,2,3]triazol-5-yl)nicotinamide]",301 to 400%
17,"Clc1ccc(-n2cc3ccccc3n2)cc1 [Example 48, 2-(4-chlorophenyl)-2H-indazole]",> 401%
18,"CS(=O)(=O)c1ccc2nn(-c3ccc(Cl)c(Cl)c3)nc2c1 [Example 50, 2-(3,4-dichlorophenyl)-5-(methylsulfonyl)-2H-benzo[d][1,2,3]triazole]",201 to 300%
19,"CCc1ccc(-n2nc3ccc(N)cc3n2)cc1 [Example 68, 2-(4-ethylphenyl)-2H-benzo[d][1,2,3]triazol-5-amine]",201 to 300%
20,"CCN(CC)c1ccc(-n2nc3ccc(NC(=O)c4cccs4)cc3n2)cc1 [Example 28, N-(2-(4-(diethylamino)phenyl)-2H-benzo[d][1,2,3]triazol-5-yl)thiophene-2-carboxamide]",< 200%
